Experimental data: ChEMBL document CHEMBL1201862, “PubChem BioAssay data set” (2004)
Calls of active or inactive are those of the source.

Tests used:
[1] = target: T1, Replicative DNA helicase DnaB (Mycobacterium tuberculosis, UniProt P9WMR3); test: DnaB intein splicing inhibitors, dose response, biochemical, cell-free fluorescence (AID 449749); assay type: functional
T1 sequence (P9WMR3 whole entry): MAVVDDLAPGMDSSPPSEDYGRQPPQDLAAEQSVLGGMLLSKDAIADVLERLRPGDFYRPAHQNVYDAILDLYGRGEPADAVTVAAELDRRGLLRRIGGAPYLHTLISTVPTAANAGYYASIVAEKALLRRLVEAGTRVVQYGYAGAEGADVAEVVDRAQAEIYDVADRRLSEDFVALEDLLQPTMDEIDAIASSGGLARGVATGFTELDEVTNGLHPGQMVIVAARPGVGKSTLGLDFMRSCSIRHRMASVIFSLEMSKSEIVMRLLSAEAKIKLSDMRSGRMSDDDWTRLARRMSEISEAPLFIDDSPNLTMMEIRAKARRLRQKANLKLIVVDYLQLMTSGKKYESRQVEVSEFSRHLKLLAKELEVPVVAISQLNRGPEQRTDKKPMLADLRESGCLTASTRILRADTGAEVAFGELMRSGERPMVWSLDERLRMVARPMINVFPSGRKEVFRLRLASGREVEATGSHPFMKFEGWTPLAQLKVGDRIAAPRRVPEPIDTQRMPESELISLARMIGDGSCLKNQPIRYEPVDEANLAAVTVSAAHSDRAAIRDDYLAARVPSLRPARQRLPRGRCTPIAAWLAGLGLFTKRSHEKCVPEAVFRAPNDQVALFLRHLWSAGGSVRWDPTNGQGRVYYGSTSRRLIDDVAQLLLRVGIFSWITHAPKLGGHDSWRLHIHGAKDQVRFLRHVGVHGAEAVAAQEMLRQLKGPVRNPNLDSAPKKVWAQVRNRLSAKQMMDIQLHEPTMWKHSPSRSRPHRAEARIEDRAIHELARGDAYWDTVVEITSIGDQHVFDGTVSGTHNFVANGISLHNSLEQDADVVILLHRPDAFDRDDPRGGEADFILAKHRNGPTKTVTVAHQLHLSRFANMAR

[2] = target: T2, Histone-lysine N-methyltransferase NSD2 (Homo sapiens, UniProt O96028); assay type: biochemical
T2 sequence (O96028 whole entry): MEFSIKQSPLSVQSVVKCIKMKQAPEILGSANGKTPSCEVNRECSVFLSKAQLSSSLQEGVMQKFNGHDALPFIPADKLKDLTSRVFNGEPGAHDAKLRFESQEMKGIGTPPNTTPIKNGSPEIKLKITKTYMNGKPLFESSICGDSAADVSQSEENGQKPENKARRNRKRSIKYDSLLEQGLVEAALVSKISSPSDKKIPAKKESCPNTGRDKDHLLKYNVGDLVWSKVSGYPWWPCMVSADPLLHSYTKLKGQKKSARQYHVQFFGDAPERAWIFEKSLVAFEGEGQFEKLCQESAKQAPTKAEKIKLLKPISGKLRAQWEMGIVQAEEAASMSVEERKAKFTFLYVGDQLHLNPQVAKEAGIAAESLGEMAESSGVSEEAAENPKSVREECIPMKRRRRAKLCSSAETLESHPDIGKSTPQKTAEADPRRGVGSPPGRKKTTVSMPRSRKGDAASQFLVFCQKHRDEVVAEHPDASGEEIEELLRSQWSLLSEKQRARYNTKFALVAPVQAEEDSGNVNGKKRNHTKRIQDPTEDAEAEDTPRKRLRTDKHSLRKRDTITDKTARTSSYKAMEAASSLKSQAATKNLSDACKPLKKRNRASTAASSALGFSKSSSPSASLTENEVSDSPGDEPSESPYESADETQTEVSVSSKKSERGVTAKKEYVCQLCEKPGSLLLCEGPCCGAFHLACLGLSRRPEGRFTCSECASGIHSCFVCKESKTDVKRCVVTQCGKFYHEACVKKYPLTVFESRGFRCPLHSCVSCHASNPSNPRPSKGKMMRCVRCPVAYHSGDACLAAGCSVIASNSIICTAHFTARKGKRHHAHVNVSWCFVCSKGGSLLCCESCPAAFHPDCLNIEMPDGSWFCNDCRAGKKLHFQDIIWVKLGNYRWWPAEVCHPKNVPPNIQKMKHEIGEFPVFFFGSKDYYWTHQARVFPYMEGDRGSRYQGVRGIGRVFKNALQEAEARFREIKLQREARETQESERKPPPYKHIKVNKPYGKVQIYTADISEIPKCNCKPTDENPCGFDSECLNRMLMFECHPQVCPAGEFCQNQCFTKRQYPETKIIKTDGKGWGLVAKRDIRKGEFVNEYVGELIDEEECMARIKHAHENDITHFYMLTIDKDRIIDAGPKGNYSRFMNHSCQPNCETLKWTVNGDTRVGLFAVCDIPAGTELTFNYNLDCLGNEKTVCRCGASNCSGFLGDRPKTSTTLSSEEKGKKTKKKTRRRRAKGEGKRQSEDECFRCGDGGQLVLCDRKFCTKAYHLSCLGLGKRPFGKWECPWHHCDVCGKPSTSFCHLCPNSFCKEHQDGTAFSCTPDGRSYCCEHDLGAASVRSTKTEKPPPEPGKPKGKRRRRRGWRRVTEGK

[3] = target: Ribosomal protein S6 kinase alpha-3 (Homo sapiens, UniProt P51812); assay type: functional;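 note: measured within a kinome-wide profiling panel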
[4] = target: Proto-oncogene tyrosine-protein kinase receptor Ret (Homo sapiens, UniProt P07949); assay type: functional;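 note: measured within a kinome-wide profiling panel, RET as the panel member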
[5] = target: Rho-associated protein kinase 1 (Homo sapiens, UniProt Q13464); assay type: functional;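 note: measured within a broad kinome-wide panel profiling many kinases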
[6] = target: Dual specificity protein kinase CLK4 (Homo sapiens, UniProt Q9HAZ1); assay type: functional
[7] = target: Mitogen-activated protein kinase kinase kinase kinase 4 (Homo sapiens, UniProt O95819); assay type: functional
[8] = target: Platelet-derived growth factor receptor beta (Homo sapiens, UniProt P09619); assay type: functional;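 note: value comes from a kinome panel, with PDGFRB tested as one panel member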
[9] = target: G protein-coupled receptor kinase 5 (Homo sapiens, UniProt P34947); test: Navigating the Kinome. Panel member name: GPRK5; assay type: functional
[10] = target: Nonstructural protein 1 (Influenza A virus, UniProt Q194T2); assay type: functional, Influenza A virus (A/California/07/2009(H1N1))
[11] = system: Vero; test: Vero cell cytotoxicity, cytotoxicity control for flavivirus capping enzyme inhibitors (AID 588742); assay type: functional; conditions: Chlorocebus sabaeus
[12] = system: INS1; test: beta cell apoptosis inhibitors, cytokine rescue, dose response, luminescence, retest (AID 449756); assay type: functional, cell-based; conditions: Rattus norvegicus;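 note: cell death triggered by IL-1 beta plus TNF-alpha plus IFN-gamma mixture; protective hits raise ATP signal compared with cytokine alone wells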

Rho-associated protein kinase 1, sequence (Q13464 whole entry): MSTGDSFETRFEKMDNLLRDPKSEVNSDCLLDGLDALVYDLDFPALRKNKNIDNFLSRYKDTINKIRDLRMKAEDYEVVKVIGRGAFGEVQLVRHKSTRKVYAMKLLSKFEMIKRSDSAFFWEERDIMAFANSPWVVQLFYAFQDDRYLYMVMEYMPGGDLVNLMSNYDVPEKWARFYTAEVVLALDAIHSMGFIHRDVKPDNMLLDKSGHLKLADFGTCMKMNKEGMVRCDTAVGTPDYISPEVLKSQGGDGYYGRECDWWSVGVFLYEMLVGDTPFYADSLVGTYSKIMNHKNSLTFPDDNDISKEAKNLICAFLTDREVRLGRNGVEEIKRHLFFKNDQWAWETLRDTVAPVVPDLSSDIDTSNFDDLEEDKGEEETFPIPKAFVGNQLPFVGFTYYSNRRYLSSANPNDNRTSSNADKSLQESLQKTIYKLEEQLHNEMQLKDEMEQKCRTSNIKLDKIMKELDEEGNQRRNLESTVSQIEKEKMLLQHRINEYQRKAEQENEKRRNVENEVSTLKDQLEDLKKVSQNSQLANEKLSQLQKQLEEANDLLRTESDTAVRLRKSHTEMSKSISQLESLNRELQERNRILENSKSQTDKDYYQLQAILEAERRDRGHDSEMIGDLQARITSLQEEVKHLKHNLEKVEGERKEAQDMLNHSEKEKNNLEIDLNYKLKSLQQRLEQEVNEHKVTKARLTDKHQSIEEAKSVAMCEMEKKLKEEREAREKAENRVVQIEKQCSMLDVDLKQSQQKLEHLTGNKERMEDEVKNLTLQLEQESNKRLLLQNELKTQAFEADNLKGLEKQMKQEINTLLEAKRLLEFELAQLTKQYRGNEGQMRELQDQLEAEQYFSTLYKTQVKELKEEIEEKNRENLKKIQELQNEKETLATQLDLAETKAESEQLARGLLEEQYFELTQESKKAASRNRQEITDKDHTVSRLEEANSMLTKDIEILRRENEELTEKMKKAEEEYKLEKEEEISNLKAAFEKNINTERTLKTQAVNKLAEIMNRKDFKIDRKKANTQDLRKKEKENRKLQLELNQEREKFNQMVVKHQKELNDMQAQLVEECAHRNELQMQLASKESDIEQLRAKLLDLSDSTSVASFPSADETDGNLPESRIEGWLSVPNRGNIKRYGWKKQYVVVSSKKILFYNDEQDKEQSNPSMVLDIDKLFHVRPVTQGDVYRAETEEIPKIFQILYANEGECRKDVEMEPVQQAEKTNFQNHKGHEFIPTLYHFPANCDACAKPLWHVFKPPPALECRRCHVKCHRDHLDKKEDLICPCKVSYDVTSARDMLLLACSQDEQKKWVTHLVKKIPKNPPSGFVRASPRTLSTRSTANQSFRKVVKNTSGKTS
Mitogen-activated protein kinase kinase kinase kinase 4, sequence (O95819 whole entry): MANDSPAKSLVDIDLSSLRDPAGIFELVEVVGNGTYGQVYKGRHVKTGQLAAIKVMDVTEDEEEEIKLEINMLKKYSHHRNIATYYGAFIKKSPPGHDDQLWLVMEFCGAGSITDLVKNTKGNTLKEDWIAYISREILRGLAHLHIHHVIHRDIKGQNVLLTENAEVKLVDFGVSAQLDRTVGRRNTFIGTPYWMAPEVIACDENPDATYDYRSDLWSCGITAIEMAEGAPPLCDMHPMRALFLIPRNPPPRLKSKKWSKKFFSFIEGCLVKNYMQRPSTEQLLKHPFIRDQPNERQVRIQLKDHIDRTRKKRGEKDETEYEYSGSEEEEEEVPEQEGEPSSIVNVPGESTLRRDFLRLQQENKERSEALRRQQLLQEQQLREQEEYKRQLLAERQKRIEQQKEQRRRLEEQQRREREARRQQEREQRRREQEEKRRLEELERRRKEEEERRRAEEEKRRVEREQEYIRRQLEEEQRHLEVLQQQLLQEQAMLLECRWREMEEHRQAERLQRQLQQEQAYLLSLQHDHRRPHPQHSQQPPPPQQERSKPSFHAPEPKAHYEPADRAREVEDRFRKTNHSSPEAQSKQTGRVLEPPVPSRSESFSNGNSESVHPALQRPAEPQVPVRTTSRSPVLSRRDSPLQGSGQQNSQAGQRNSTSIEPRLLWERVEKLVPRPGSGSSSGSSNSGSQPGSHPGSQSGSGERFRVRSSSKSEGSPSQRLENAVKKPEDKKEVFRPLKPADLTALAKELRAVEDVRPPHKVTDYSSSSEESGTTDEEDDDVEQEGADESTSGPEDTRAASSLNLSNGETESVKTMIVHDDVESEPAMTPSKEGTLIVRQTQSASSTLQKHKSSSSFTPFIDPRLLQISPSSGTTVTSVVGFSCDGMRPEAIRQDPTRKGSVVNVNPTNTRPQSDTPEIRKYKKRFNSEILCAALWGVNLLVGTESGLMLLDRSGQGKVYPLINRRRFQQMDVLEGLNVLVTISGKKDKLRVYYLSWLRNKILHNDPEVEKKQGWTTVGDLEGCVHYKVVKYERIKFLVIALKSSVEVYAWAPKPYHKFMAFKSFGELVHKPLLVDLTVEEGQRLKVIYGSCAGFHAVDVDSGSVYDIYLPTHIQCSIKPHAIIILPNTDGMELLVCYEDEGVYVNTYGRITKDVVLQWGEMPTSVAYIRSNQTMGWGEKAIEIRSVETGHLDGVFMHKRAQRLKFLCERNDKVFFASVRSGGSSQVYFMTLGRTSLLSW
Dual specificity protein kinase CLK4, sequence (Q9HAZ1 whole entry): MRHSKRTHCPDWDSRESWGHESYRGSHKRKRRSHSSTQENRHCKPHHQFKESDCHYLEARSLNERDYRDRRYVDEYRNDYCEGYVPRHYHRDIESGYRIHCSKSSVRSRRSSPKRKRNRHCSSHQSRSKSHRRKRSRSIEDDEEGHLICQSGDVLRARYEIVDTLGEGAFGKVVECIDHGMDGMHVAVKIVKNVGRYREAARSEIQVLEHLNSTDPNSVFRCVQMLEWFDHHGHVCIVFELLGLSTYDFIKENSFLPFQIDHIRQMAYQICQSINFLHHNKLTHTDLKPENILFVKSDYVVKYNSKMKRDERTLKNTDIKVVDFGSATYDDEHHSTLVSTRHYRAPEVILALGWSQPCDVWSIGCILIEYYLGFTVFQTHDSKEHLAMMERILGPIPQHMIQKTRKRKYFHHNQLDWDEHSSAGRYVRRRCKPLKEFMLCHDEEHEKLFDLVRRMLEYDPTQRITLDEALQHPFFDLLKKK
Platelet-derived growth factor receptor beta, sequence (P09619 whole entry): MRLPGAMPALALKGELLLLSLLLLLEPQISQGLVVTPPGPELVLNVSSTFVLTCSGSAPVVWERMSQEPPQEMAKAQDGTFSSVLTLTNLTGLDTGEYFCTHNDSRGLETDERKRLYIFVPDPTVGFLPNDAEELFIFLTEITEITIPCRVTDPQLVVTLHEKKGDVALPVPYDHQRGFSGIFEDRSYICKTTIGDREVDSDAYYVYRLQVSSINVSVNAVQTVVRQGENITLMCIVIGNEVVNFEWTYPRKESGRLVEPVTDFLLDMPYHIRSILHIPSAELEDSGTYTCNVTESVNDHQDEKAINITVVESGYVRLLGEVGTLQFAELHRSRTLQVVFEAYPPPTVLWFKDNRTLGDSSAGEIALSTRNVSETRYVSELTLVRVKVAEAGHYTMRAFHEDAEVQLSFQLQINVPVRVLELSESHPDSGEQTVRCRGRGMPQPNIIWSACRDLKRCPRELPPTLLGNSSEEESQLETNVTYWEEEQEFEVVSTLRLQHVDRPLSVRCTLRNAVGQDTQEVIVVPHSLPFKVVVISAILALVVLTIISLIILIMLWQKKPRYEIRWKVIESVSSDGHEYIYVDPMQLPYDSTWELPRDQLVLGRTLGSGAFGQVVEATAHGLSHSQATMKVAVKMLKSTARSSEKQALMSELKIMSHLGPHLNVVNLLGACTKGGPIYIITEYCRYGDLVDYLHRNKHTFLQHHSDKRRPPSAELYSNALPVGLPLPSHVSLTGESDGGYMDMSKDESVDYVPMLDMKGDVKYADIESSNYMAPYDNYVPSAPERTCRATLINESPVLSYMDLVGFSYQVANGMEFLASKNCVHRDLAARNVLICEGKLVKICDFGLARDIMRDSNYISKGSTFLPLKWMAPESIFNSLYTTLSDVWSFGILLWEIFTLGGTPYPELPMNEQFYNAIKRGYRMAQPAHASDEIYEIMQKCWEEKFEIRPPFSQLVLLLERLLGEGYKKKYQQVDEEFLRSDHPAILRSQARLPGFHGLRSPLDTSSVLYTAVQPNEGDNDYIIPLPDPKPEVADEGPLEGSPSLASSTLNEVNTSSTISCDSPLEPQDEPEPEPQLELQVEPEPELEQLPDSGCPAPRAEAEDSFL
Ribosomal protein S6 kinase alpha-3, sequence (P51812 whole entry): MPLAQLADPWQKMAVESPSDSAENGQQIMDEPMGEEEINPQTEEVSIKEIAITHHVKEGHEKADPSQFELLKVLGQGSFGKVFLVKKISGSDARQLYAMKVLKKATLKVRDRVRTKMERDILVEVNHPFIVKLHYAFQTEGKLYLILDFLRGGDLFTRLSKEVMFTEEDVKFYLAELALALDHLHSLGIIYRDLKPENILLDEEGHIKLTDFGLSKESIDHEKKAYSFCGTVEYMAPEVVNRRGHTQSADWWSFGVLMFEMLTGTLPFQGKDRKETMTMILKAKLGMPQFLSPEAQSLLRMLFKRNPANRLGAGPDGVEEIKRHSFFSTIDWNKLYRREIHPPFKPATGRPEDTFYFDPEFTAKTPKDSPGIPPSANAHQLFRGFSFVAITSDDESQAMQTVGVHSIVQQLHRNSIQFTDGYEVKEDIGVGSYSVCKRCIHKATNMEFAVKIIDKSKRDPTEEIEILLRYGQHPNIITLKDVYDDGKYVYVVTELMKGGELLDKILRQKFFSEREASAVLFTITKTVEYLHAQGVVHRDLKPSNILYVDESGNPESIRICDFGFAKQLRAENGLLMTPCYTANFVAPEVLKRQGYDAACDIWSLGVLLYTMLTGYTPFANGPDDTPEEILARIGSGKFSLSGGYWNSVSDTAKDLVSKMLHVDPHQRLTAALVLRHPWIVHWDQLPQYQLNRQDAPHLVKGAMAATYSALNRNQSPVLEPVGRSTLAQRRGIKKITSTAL

O=C(Cc1ccccc1)NC1(O)C(=O)c2ccccc2C1=O
AC50 [1]: 6.13 µM (active) | AC50 [2]: 7.11 µM (active)

O=c1[nH]c2cc(Br)cnc2[nH]1
Ki [3]: 31.6 µM (active) | Ki [4]: 31.6 µM (active) | Ki [5]: 50.1 µM (active) | Ki [6]: 1.26 µM (active) | Ki [7]: 50.1 µM (active)

O=C(Nc1cccc(C(F)(F)F)n1)Nc1ccnc2cc(OC(F)F)ccc12
Ki [3]: > 3.98 µM (inactive) | Ki [4]: > 3.16 µM (inactive) | Ki [8]: > 2 µM (inactive) | Ki [9]: > 3.98 µM (inactive) | Ki [5]: > 3.98 µM (inactive) | Ki [7]: > 5.01 µM (inactive)

O=C(Nc1cccc(C(F)(F)F)n1)Nc1ccnc2cc(Cl)ccc12
Ki [8]: > 2 µM (inactive) | Ki [9]: > 3.98 µM (inactive) | Ki [5]: > 3.98 µM (inactive) | Ki [6]: 1.26 µM (active)

CCC1CC(NS(=O)(=O)C2CC2)CC1c1ncc2cnc3[nH]ccc3n12 (centres undefined)
Ki [5]: 0.0316 µM (active) | Ki [6]: > 1.58 µM (inactive) | Ki [7]: > 5.01 µM (inactive)

Cc1cc(C)c(S(=O)(=O)/N=C2\C=C(Nc3ccc(C(=O)O)cc3)C(=O)c3ccccc32)c(C)c1
IC50 [10]: 20.8 µM (active) | AC50 [1]: 0.149 µM (active) | CC50 [11]: 9.71 µM (active) | AC50 [12]: 2.51 µM (active)

COC(=O)c1nc(-c2ccc3c(n2)C(=O)C(=N)C(OC)=C3O)c(N)c(-c2ccc(OC)c(OC)c2O)c1C
IC50 [10]: > 100 µM (active) | AC50 [1]: > 380 µM (inconclusive) | CC50 [11]: 0.18 µM (active) | AC50 [12]: 1.56 µM (active) | AC50 [2]: > 20 µM (inactive)
